Converted amounts (≈) assume the structure as drawn. Where two headings read alike, the source gives them in different places.
Assays:
[1] = test system: Streptococcus pneumoniae Park I; experiment: microbe, parasite or virus in culture; type: cell-based
[2] = test system: Pasteurella multocida 17E; experiment: MIC, broth-dilution microtiter test, Pasteurella multocida 17E; type: cell-based; conditions: Pasteurella multocida 17E, bovine isolate, broth-dilution microtiter
Text: (§1) The MIC's in Table X were obtained using conventional broth-dilution microtiter tests.

[3] = test system: Staphylococcus aureus X1.1; experiment: MIC, standard agar-dilution assay, Staphylococcus aureus X1.1; type: cell-based
[4] = test system: Streptococcus pyogenes C203; experiment: MIC, standard agar-dilution assay, Streptococcus pyogenes C203; type: cell-based
[5] = test system: Staphylococcus aureus V41; experiment: MIC, standard agar-dilution assay, Staphylococcus aureus V41; type: cell-based
[6] = test system: Pasteurella hemolytica 22C; experiment: MIC, broth-dilution microtiter test, Pasteurella hemolytica 22C; type: cell-based; conditions: Pasteurella hemolytica 22C, broth-dilution microtiter
Text: as §1

[7] = test system: Staphylococcus epidermidis EPI1; experiment: MIC, standard agar-dilution assay, Staphylococcus epidermidis EPI1; type: cell-based
[8] = test system: Haemophilus influenzae R252; experiment: MIC, standard agar-dilution assay, Haemophilus influenzae R252; type: cell-based
Streptococcus Group 9960 = experiment: MIC, standard agar-dilution assay, Streptococcus Group 9960; type: cell-based; conditions: Streptococcus Group 9960, agar dilution
[9] = test system: Pasteurella multocida 60A; experiment: MIC, broth-dilution microtiter test, Pasteurella multocida 60A; type: cell-based
Text: as §1

Mycoplasma gallisepticum = experiment: MIC, broth-dilution microtiter test, Mycoplasma gallisepticum; type: cell-based
Text: as §1

[10] = test system: Staphylococcus epidermidis EPI2; experiment: MIC, standard agar-dilution assay, Staphylococcus epidermidis EPI2; type: cell-based
[11] = test system: Staphylococcus aureus S13E; experiment: MIC, standard agar-dilution assay, Staphylococcus aureus S13E; type: cell-based
Mycoplasma synoviae = experiment: MIC, broth-dilution microtiter test, Mycoplasma synoviae; type: cell-based
Text: as §1

[12] = test system: Staphylococcus aureus X400; experiment: MIC, standard agar-dilution assay, Staphylococcus aureus X400; type: cell-based
[13] = test system: Streptococcus pyogenes C203; experiment: In vivo protection of mice experimentally infected with S. pyogenes C203; conditions: mice, doses given 1 and 4 hours post-infection; for ED50: Streptococcus pyogenes
Experimental: The C-20 modified derivatives of this invention have shown in vivo antimicrobial activity against experimentally-induced infections in laboratory animals. When two doses of test compound were administered to mice experimentally infected with S. pyogenes C203, the activity observed was measured as an ED50 value [effective dose in mg/kg to protect 50% of the test animals: see Warren Wick, et al., J. Bacteriol. 81, 233-235 (1961)].

Mycoplasma hyopneumoniae = experiment: MIC, broth-dilution microtiter test, Mycoplasma hyopneumoniae; type: cell-based
Text: as §1

Mycoplasma hyorhinis = experiment: MIC, broth-dilution microtiter test, Mycoplasma hyorhinis; type: cell-based; conditions: Mycoplasma hyorhinis, broth-dilution microtiter
Text: as §1

[14] = test system: Streptococcus Group D X66; experiment: MIC, standard agar-dilution assay, Streptococcus Group D X66; type: cell-based
Staphylococcus aureus = experiment: MIC, broth-dilution microtiter test, Staphylococcus aureus; type: cell-based
Text: as §1

Streptococcus bovis 80 = experiment: MIC, broth-dilution microtiter test, Streptococcus bovis 80; type: cell-based
Text: as §1

[15] = test system: Haemophilus influenzae Holt; experiment: MIC, standard agar-dilution assay, Haemophilus influenzae Holt; type: cell-based; conditions: Haemophilus influenzae Holt; ampicillin-sensitive strain; agar dilution
[16] = Staphylococcus aureus X1.1, agar dilution
[17] = Streptococcus pyogenes C203, agar dilution
[18] = Staphylococcus epidermidis EPI1, agar dilution
[19] = Haemophilus influenzae R252, ampicillin-resistant strain, agar dilution
[20] = Pasteurella multocida 60A, avian isolate, broth-dilution microtiter
[21] = Mycoplasma gallisepticum, broth-dilution microtiter
[22] = Staphylococcus epidermidis EPI2, agar dilution
[23] = Staphylococcus aureus S13E, agar dilution
[24] = Staphylococcus aureus X400, methicillin-resistant strain, agar dilution
[25] = Mycoplasma hyopneumoniae, broth-dilution microtiter
[26] = Streptococcus Group D X66, agar dilution
[27] = Streptococcus bovis 80, broth-dilution microtiter

CCC1OC(=O)CC(O)C(C)C(OC2OC(C)C(O)C(N(C)C)C2O)C(CCOc2cccc(N(C)C)c2)CC(C)C(=O)C=CC(C)=CC1COC1OC(C)C(O)C(OC)C1OC (centres unmarked) [Compound 39, 20-DH-20-O-[m-(N,N-Dimethylamino)phenyl]desmycosin]
MIC ([1]; Streptococcus pneumoniae): 1 µg/mL (≈ 1.12 µM) | MIC ([2]; read-out: MIC): 25 µg/mL (≈ 28 µM) | MIC ([3]; Staphylococcus aureus, X1.1): 0.5 µg/mL (≈ 0.56 µM) | MIC ([4]; Streptococcus pyogenes, C203): 0.25 µg/mL (≈ 0.28 µM) | MIC ([5]; Staphylococcus aureus, V41): 0.5 µg/mL (≈ 0.56 µM) | MIC ([6]; read-out: MIC): > 50 µg/mL | MIC ([7]; Staphylococcus epidermidis, EPI1): 0.5 µg/mL (≈ 0.56 µM) | MIC ([8]; Haemophilus influenzae, R252): 16 µg/mL (≈ 17.9 µM) | MIC (Streptococcus Group 9960; GROUP9960, read-out: MIC): 8 µg/mL (≈ 8.96 µM) | MIC ([9]; Pasteurella multocida, 60A): 12.5 µg/mL (≈ 14 µM) | MIC (Mycoplasma gallisepticum; Mycoplasmoides gallisepticum): 1.56 µg/mL (≈ 1.75 µM) | MIC ([10]; Staphylococcus epidermidis, EPI2): 0.25 µg/mL (≈ 0.28 µM) | MIC ([11]; Staphylococcus aureus, S13E): 0.5 µg/mL (≈ 0.56 µM) | MIC (Mycoplasma synoviae; Mycoplasmopsis synoviae): 1.56 µg/mL (≈ 1.75 µM) | MIC ([12]; Staphylococcus aureus, X400): 0.5 µg/mL (≈ 0.56 µM) | ED50 ([13]; C203, sc, subcutaneous, read-out: ED50, Subcutaneous): 6.7 mg/kg | ED50 ([13]; C203, oral, read-out: ED50, Oral): 19 mg/kg | MIC (Mycoplasma hyopneumoniae; Mesomycoplasma hyopneumoniae): 6.25 µg/mL (≈ 7 µM) | MIC (Mycoplasma hyorhinis; read-out: MIC): 25 µg/mL (≈ 28 µM) | MIC [14]: 4 µg/mL (≈ 4.48 µM) | MIC (Staphylococcus aureus): 6.25 µg/mL (≈ 7 µM) | MIC (Streptococcus bovis 80; Streptococcus equinus, 80): 1.56 µg/mL (≈ 1.75 µM)

CCC(=O)OC1C(C)OC(OC2C(CCN3C(=O)c4ccccc4C3=O)CC(C)C(=O)C=CC(C)=CC(COC3OC(C)C(O)C(OC)C3OC)C(CC)OC(=O)CC(O)C2C)C(OC(=O)CC)C1N(C)C (centres unmarked) [Compound 66, 20-DH-DO-20-N-Phthalimido-2',4'-di-O-propionyldesmycosin]
MIC ([1]; Streptococcus pneumoniae Park I, agar dilution): 0.5 µg/mL (≈ 0.493 µM) | MIC [2]: 25 µg/mL (≈ 24.6 µM) | MIC [3, 16]: 0.5 µg/mL (≈ 0.493 µM) | MIC [4, 17]: 2 µg/mL (≈ 1.97 µM) | MIC ([5]; Staphylococcus aureus V41, penicillin-resistant strain, agar dilution): 0.5 µg/mL (≈ 0.493 µM) | MIC [6]: 25 µg/mL (≈ 24.6 µM) | MIC [7, 18]: 0.5 µg/mL (≈ 0.493 µM) | MIC [8, 19]: 64 µg/mL (≈ 63 µM) | MIC (Streptococcus Group 9960): 8 µg/mL (≈ 7.88 µM) | MIC [9, 20]: 25 µg/mL (≈ 24.6 µM) | MIC (Mycoplasma gallisepticum; [21]): 0.09 µg/mL (≈ 0.0887 µM) | MIC [10, 22]: 0.25 µg/mL (≈ 0.246 µM) | MIC [11, 23]: 0.5 µg/mL (≈ 0.493 µM) | MIC [12, 24]: 1 µg/mL (≈ 0.985 µM) | MIC [15]: 64 µg/mL (≈ 63 µM) | ED50, Oral ([13]; oral): 31 mg/kg × 2 | ED50, Subcutaneous ([13]; subcutaneous): > 6.3 mg/kg × 2 | MIC (Mycoplasma hyopneumoniae; [25]): 25 µg/mL (≈ 24.6 µM) | MIC (Mycoplasma hyorhinis): 50 µg/mL (≈ 49.3 µM) | MIC [14, 26]: 8 µg/mL (≈ 7.88 µM) | MIC (Staphylococcus aureus; broth-dilution microtiter): 0.78 µg/mL (≈ 0.768 µM) | MIC (Streptococcus bovis 80; [27]): 6.25 µg/mL (≈ 6.16 µM)

20-DH-20-O-(Phenylsulfinyl)desmycosin [Compound 25]
MIC [2]: 12.5 µg/mL | MIC [3, 16]: 0.25 µg/mL | MIC [4, 17]: 0.25 µg/mL | MIC [6]: 12.5 µg/mL | MIC [7, 18]: 0.25 µg/mL | MIC [8, 19]: 4 µg/mL | MIC (Streptococcus Group 9960): 4 µg/mL | MIC [9, 20]: 6.25 µg/mL | MIC (Mycoplasma gallisepticum; [21]): < 0.05 µg/mL | MIC [10, 22]: 0.12 µg/mL | MIC [11, 23]: 0.25 µg/mL | MIC (Mycoplasma synoviae; Mycoplasma synoviae, broth-dilution microtiter): 0.19 µg/mL | MIC [12, 24]: 0.25 µg/mL | MIC [15]: 8 µg/mL | ED50, Oral ([13]; oral): 45 mg/kg × 2 | ED50, Subcutaneous ([13]; subcutaneous): 5.0 mg/kg × 2 | MIC (Mycoplasma hyopneumoniae; [25]): 12.5 µg/mL | MIC (Mycoplasma hyorhinis): -- (Not active at 50 mcg/ml, the highest level tested) | MIC [14, 26]: 4 µg/mL | MIC (Staphylococcus aureus; broth-dilution microtiter): 0.39 µg/mL | MIC (Streptococcus bovis 80; [27]): 3.12 µg/mL
